Like-named read-outs stand apart in the source and are kept apart here.
Assays:
[1] = Metabolic stability in liver S9 fractions; assay type: in vitro ADME; conditions: pooled mouse liver S9 fraction; 1 μM compound, 1 mg/mL pooled mouse liver S9, 37 °C; read-out: t1/2 Mouse Liver S9
Description: To evaluate phase I and phase II metabolic stability, the compound (1 μM) was incubated at 37 °C for 240 min with 1 mg/mL pooled mouse liver S9 fraction (Xenotech, Kansas City, USA), 2 mM NADPH, 1 mM UDPGA, 10 mM MgCl2, 5 mM GSH and 0.1 mM PAPS. Metabolic stability of reference compounds: testosterone, verapamil and ketoconazole was determined in parallel to confirm the enzymatic activity of mouse S9 fractions. At defined time points, the incubation was stopped by precipitation of aliquots of S9 enzymes with 2 volumes of cold acetonitrile containing internal standard (150 nM diphenhydramine or 15 nM for Altis Plus measurements). Samples were kept on ice until the end of the incubation, after which precipitated protein was removed by centrifugation (15 min, 4 °C, 4,000 g).

Dd2b2^31-R2.1 = test: [3H]-hypoxanthine incorporation assay; assay type: cell-based, Plasmodium falciparum
Description: (§1) P. falciparum asexual blood stage parasites were cultured in human red blood cells (RBC, Blutspende SRK, Zurich) at a hematocrit of 5% in RPMI 1640 medium. The RPMI 1640 medium (ThermoFisher Scientific #51800−043) was supplemented with the following: 24 mM NaHCO3 (pH 7.3, Sigma-Aldrich #31437−500G-R), 25 mM Hepes (Sigma-Aldrich #H4034−500G), 0.36 mM hypoxanthine (Sigma-Aldrich # H9377−25G), 100 µg mL^-1 neomycin (Sigma-Aldrich #N6386−100G) and 0.5% Albumax II (Thermo Fisher #11021−045). Additionally, 2 mM choline chloride (279 mg/L, Sigma-Aldrich #C7527−100G) was added to the culture to block the induction of sexual commitment as described. ^[31^] The RPMI 1640 medium and components were dissolved in water (Milli-Q purified), stirred for at least 3 h, and then sterile filtered (0.22 μm pore size) with a bottle top filter (Corning # 431118). Parasite cultures were maintained in an atmosphere of 3% O2, 4% CO2, and 93% N2 in air-tight chambers at 37 °C. The [^3H]-hypoxanthine incorporation assay was used to test compound activity in the specific parasite lines as described.^[32^] Briefly, compounds were dissolved in DMSO (10 mM) and diluted in a hypoxanthine-free culture medium. A limiting dilution was performed over a 64-fold range (6-step twofold dilution) in a 96-well plate in duplicates. For every starting concentration, a limiting dilution was performed over a 64-fold range (6-step twofold dilution) in a 96-well plate in two biological duplicates. Parasites were added at 100 µL to each well containing the compound to obtain a final parasitemia of 0.3% and haematocrit of 1.25%. The plates were incubated for 48 h before 0.25 µCi of [^3H]-hypoxanthine was added per well for an additional 24 h. Parasites were harvested on a glass-fiber filter with a Microbeta FilterMate cell harvester (Perkin Elmer, Waltham, USA) and radioactivity was counted using a MicroBeta2 liquid scintillation counter (Perkin Elmer, Waltham, US). […] The fifty percent inhibitory concentration (IC50) was calculated by using nonlinear, four parameter (variable slope) curve fitting as described ^[33^] after importing into GraphPad Prism (version 8.3.0).
(§2) 31 was used for resistance selection studies using the strain Dd2b2 (kindly provided by David Fidock). Resistance selection was done as described in ^[34^]. As summarized in Table S3, an initial inoculum of 2 x 10^9 asexual blood stage parasites (at 2-2.5% parasitemia) were cultured in three independent flasks. […] Cloning via limiting dilution was performed to obtain resistant clones for further characterization as described in section 2.2.5.

Dd2b2^31-R3.2 = test: [3H]-hypoxanthine incorporation assay; assay type: cell-based, Plasmodium falciparum
Description: as §1, §2

Dd2b2^WT = test: [3H]-hypoxanthine incorporation assay; assay type: cell-based, Plasmodium falciparum; conditions: for IC50: Plasmodium falciparum
Description: as §1, §2

Dd2b2^31-R1.2 = test: [3H]-hypoxanthine incorporation assay; assay type: cell-based, Plasmodium falciparum
Description: as §1, §2

Dd2b2^31-R3.1 = test: [3H]-hypoxanthine incorporation assay; assay type: cell-based, Plasmodium falciparum
Description: as §1, §2

Dd2b2^31-R1.1 = test: [3H]-hypoxanthine incorporation assay; assay type: cell-based, Plasmodium falciparum
Description: as §1, §2

Dd2b2^31-R2.2 = test: [3H]-hypoxanthine incorporation assay; assay type: cell-based, Plasmodium falciparum
Description: as §1, §2

[2] = Plasmodium falciparum, read-out: mean IC50 value ± s.d.

CN1CCN(Cc2ccc(O)c(NC(=O)c3cccc(Oc4cc(C(F)(F)F)ccn4)c3)c2)CC1 [Compound 31, N-(2-hydroxy-5-((4-methylpiperazin-1-yl)methyl)phenyl)-3-((4-(trifluoromethyl)pyridin-2-yl)oxy)benzamide]
half-life at 1 µM [1]: 42.7 ± 3.7 min | IC50 fold change relative to Dd2b2^WT (Dd2b2^31-R2.1; Dd2b2^31-R2.1): 16.9 | IC50 (Dd2b2^31-R2.1; [2]): 225 ± 35.3 nM | IC50 fold change relative to Dd2b2^WT (Dd2b2^31-R3.2; Dd2b2^31-R3.2): 19.8 | IC50 (Dd2b2^31-R3.2; [2]): 264 ± 40.5 nM | IC50 fold change relative to Dd2b2^WT (Dd2b2^WT; Dd2b2^WT): 1.0 | IC50 (Dd2b2^WT; 72 h, read-out: Parent (Dd2b2^WT) IC50): 4.5 ± 0.7 nM | IC50 (Dd2b2^WT; read-out: mean IC50 value ± s.d.): 13.3 ± 1.7 nM | IC50 fold change relative to Dd2b2^WT (Dd2b2^31-R1.2; Dd2b2^31-R1.2): 11.9 | IC50 (Dd2b2^31-R1.2; [2]): 159 ± 32.9 nM | IC50 fold change relative to Dd2b2^WT (Dd2b2^31-R3.1; Dd2b2^31-R3.1): 14.5 | IC50 (Dd2b2^31-R3.1; [2]): 192 ± 35.3 nM | IC50 fold change relative to Dd2b2^WT (Dd2b2^31-R1.1; Dd2b2^31-R1.1): 2.7 | IC50 (Dd2b2^31-R1.1; [2]): 35.8 ± 11.2 nM | IC50 fold change relative to Dd2b2^WT (Dd2b2^31-R2.2; Dd2b2^31-R2.2): 11.6 | IC50 (Dd2b2^31-R2.2; [2]): 154 ± 26.3 nM
